Experimental data reported in ChEMBL document CHEMBL1201862, “PubChem BioAssay data set” (2004).
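How tested: cells in 96-well plates exposed to compound for 48 hours at five concentrations. GI50 = concentration required for 50% inhibition of growth.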 Calls of active or inactive are those of the source. Cut-off read from the data, not from the text of the source: active = GI50 up to about 1.1 µM and inactive = higher. Non-standard residues stand in square brackets, D forms with d. Residues, ends and D or L forms follow the SMILES beside them. Ava = NCCCCC(=O)O; Mpa = O=C(O)CCS

Key:
Assay in all cases: NCI anticancer screen, dose series, 48 h
[1] = system: A549
[2] = system: BT-549
[3] = system: CAKI-1
[4] = system: EKVX
[5] = system: HCT-116
[6] = system: HCT-15
[7] = system: HL-60
[8] = system: HT-29
[9] = system: K562
[10] = system: MCF7
[11] = system: NCI-H226
[12] = system: NCI-H23
[13] = system: NCI-H460
[14] = system: NCI-H522
[15] = system: OVCAR-4
[16] = system: OVCAR-8
[17] = system: SF-295
[18] = system: SK-MEL-28
[19] = system: SN12C
[20] = system: T47D

| Compound | GI50 [1] | GI50 [2] | GI50 [3] | GI50 [4] | GI50 [5] | GI50 [6] [µM] | GI50 [7] | GI50 [8] | GI50 [9] | GI50 [10] | GI50 [11] | GI50 [12] | GI50 [13] | GI50 [14] | GI50 [15] | GI50 [16] | GI50 [17] | GI50 [18] | GI50 [19] | GI50 [20] |
| --- | --- | --- | --- | --- | --- | --- | --- | --- | --- | --- | --- | --- | --- | --- | --- | --- | --- | --- | --- | --- |
| c1ccc([P+](CCCCCCCC[P+](c2ccccc2)(c2ccccc2)c2ccccc2)(c2ccccc2)c2ccccc2)cc1 | 5.73 µM (inactive) | 1.99 µM (inactive) | > 100 µM (inactive) | > 61.5 µM (inactive) | 1.87 µM (inactive) | > 100 | 1.03 µM (active) | 2.04 µM (inactive) | 3.6 µM (inactive) | 4.48 µM (inactive) | 3.61 µM (inactive) | 2.16 µM (inactive) | 3.25 µM (inactive) | 1.8 µM (inactive) | 6.04 µM (inactive) | 4.4 µM (inactive) | 6.53 µM (inactive) | 16.9 µM (inactive) | 3.73 µM (inactive) | 5.16 µM (inactive) |
| COc1ccc(N2C(=O)C3c4[nH]c5ccc(C)cc5c4C4CCC(c5ccccc5)CC4C3C2=O)cc1 (stereo not given) | > 89.1 µM (inactive) | 42.3 µM (inactive) | > 33.1 µM (inactive) | > 64.3 µM (inactive) | > 57.7 µM (inactive) | > 75.9 | 12.8 µM (inactive) | > 100 µM (inactive) | 25.8 µM (inactive) | > 83.6 µM (inactive) | > 100 µM (inactive) | 33.7 µM (inactive) | 39 µM (inactive) | > 100 µM (inactive) | > 32.5 µM (inactive) | 22.5 µM (inactive) | 20.6 µM (inactive) | > 100 µM (inactive) | > 100 µM (inactive) | > 100 µM (inactive) |
| CCOS(=O)(=O)c1ccc(-c2c3nc(c(-c4ccc(S(=O)(=O)OCC)cc4)c4ccc([nH]4)c(-c4ccc(S(=O)(=O)OCC)cc4)c4nc(c(-c5ccc(S(=O)(=O)OCC)cc5)c5ccc2[nH]5)C=C4)C=C3)cc1 | > 31.6 µM (inactive) | > 31.6 µM (inactive) | > 31.6 µM (inactive) | > 31.6 µM (inactive) | > 31.6 µM (inactive) | > 31.6 | > 31.6 µM (inactive) | > 100 µM (inactive) | > 10 µM (inactive) | > 31.6 µM (inactive) | 18.3 µM (inactive) | > 31.6 µM (inactive) | > 31.6 µM (inactive) | 10.5 µM (inactive) | > 31.6 µM (inactive) | > 31.6 µM (inactive) | > 31.6 µM (inactive) | > 10 µM (inactive) | > 31.6 µM (inactive) | > 31.6 µM (inactive) |
| O=c1[nH]nc(Cc2ccc(Cl)cc2)n1CCO | > 100 µM (inactive) | > 100 µM (inactive) | > 100 µM (inactive) | > 100 µM (inactive) | > 100 µM (inactive) | > 100 | > 100 µM (inactive) | > 100 µM (inactive) | > 100 µM (inactive) | > 100 µM (inactive) | > 100 µM (inactive) | > 100 µM (inactive) | > 100 µM (inactive) | > 100 µM (inactive) | > 100 µM (inactive) | > 100 µM (inactive) | > 100 µM (inactive) | > 100 µM (inactive) | > 100 µM (inactive) | > 100 µM (inactive) |
| Cc1ccc(Nc2nc3ccccc3nc2NS(=O)(=O)c2ccc(N)cc2)cc1 | 34.5 µM (inactive) | 5.35 µM (inactive) | 59.2 µM (inactive) | > 100 µM (inactive) | 37.3 µM (inactive) | 49.8 | 21.9 µM (inactive) | 68.4 µM (inactive) | 31.5 µM (inactive) | 45.2 µM (inactive) | 78.7 µM (inactive) | 3.2 µM (inactive) | 4.89 µM (inactive) | 25.2 µM (inactive) | 19.3 µM (inactive) | 81.8 µM (inactive) | 46.7 µM (inactive) | 33.4 µM (inactive) | 48.3 µM (inactive) | 44 µM (inactive) |
| CC(NC(=O)CCS)C(=O)NC(C)C(=O)NC(Cc1c[nH]c2ccccc12)C(=O)NC(Cc1c[nH]cn1)C(=O)NC(CO)C(=O)NC(Cc1c[nH]c2ccccc12)C(=O)NCCCCC(=O)NC(C)C(=O)NC(CCC(N)=O)C(=O)NC(CCCCN)C(=O)NC(C)C(=O)NC(CCCNC(=N)N)C(=O)NC(CCCCN)C(N)=O (stereo not given) ([Mpa]AAWHSW[Ava]AQKARK-NH2; configuration not given here) | > 100 µM (inactive) | > 100 µM (inactive) | 44.2 µM (inactive) | > 100 µM (inactive) | > 100 µM (inactive) | > 100 | 24.7 µM (inactive) | > 100 µM (inactive) | 26.9 µM (inactive) | > 100 µM (inactive) | > 100 µM (inactive) | > 100 µM (inactive) | 37.2 µM (inactive) | > 100 µM (inactive) | > 100 µM (inactive) | 90.2 µM (inactive) | > 100 µM (inactive) | 34.7 µM (inactive) | > 100 µM (inactive) | 23.9 µM (inactive) |
